Each block holds one compound with its values, some of them ahead of it.
Columns and labels:
[1] = cited from earlier work
[2] = Flux through rat skin translated to human skin; assay type: in vitro ADME; conditions: translated from the rat skin flux of 6.52 μg/cm^2/hr; limonene as PE in PG
[3] = Endoxifen permeation studies with MFtC, with or without permeation enhancers; assay type: in vitro ADME, rat; conditions: for Flux / Lag time: MFtC, rat abdominal skin, mean ± SD, N = 3
Experimental: A fluorescence assay for endoxifen was established whereby endoxifen was converted to highly fluorescent phenanthrene derivatives following exposure to ultraviolet (UV) irradiation. A UV transilluminator (Bio Rad, USA) at λ=302 nm and an intensity of 866 μW/cm^2 was used for the conversion of endoxifen to its phenanthrene derivatives. The fluorescence emitted from the phenanthrene derivatives of endoxifen after various durations of UV exposure was determined with a microplate reader at a λex=260 nm and a λem=380 nm. Fluorescence measurements from non-UV exposed samples served as a control. The optimum duration of UV irradiation was determined with a 10 μg/ml solution of endoxifen. For all subsequent experiments, this duration of UV irradiation was fixed at the optimal time. The validated MFtC 5 mounted with rat abdominal skin was employed to determine the permeation profile of endoxifen. Donor solutions comprised of endoxifen (2 mg/ml) in PG with and without permeation enhancers (PEs) namely limonene, myristyl lactate and oleic acid at 0.5% (w/v) were prepared. All solutions were sonicated for 3 min to ensure dissolution of endoxifen and PEs. Each donor compartment 220 was filled with 200 μl of donor solution. Endoxifen was allowed to permeate through the rat abdominal skin over 48 hr. The experiments were performed in triplicates. Samples of permeated solutions were collected at specific time intervals and stored at −20° C. until analysis. The flux at steady state (Jss) and lag time were obtained from the cumulative plots. The effect of the PEs on the flux was evaluated by calculating the enhancement index (EI). Independent sample t-test (IBM SPSS PASW Statistics 18) was used to compare the permeation parameters obtained from experiments involving horizontal diffusion cell and MFtC 5. For endoxifen permeation experiments, one-way analysis of variance (ANOVA) with Scheffe post hoc test was used for the comparison of the permeation parameters of endoxifen with or without the different PEs. For all tests, p<0.05 was considered significant.

[4] = endoxifen in 60% (v/v) ethanol-phosphate buffer with 0.5% (w/v) oleic acid; cited from earlier work
[5] = Permeation across rat abdominal skin in miniaturized flow-through cell (MFtC), validation; assay type: in vitro ADME
Experimental: To evaluate the performance characteristics of the MFtC 5, permeation of model compounds (rhodamine B and mangostin) using a horizontal diffusion cell (TK-6H1, Shanghai Kai Kai Technology, China) and a MFtC 5 was compared. Rat abdominal skins were obtained from the National University of Singapore Animal Centre and kept at −80° C. until use. Prior to the permeation studies, the skins were thawed and hair was completely removed with an electrical shaver and hair remover cream (Veet). Subcutaneous fat and connective tissues were also lightly trimmed off. All animal experiments were approved by Institutional Animal Care and Use Committee, National University of Singapore. Similar conditions were used in the MFtC 5 or MFtC 5 setup. A 1.0 cm×1.0 cm piece of rat abdominal skin was mounted between the donor compartment 220 and the receptor compartment 120 with the stratum corneum side facing the donor compartment 220 of the MFtC 5. In some embodiments, the area and shape of the skin/membrane of the present disclosure can be modified as needed or per application requirements. A sealant or sealing substance or material such as high vacuum grease (Dow Corning, USA) was applied to the donor compartment 220 on the unexposed stratum corneum side, in contact with the receptor compartment 120, to minimize leakage from the donor compartment 220. Other sealants, sealing substances, or high vacuum grease for minimizing leakage from the donor compartment 220 can be selected as needed or per application requirements. […] On the other hand, leakage of the donor solution could be observed when no grease was applied. In an embodiment of the present disclosure, the effective diffusion area was 0.283 cm^2. In some embodiments, the effective diffusion area can be about 0.283 cm^2 to about 0.5 cm^2. In an embodiment of the present disclosure, 70 μl of the donor solution was added into the donor compartment 220. In some embodiments, the volume of the donor solution added to the donor compartment 220 can be about 70 μl to about 300 μl. In an embodiment of the present disclosure, the receptor fluid or receptor solution comprised degassed PBS solution. In some embodiments, the receptor solution of the present disclosure can comprise other solutions such as water, buffers, extracellular fluid, lung lining fluid, gastric fluid, and/or cerebrospinal fluid. In an embodiment of the present disclosure, the flow rate of receptor solution through each diffusion cell 50 can be controlled by an infusion pump system 60, wherein the flow rate can be about 0.20 ml/hr. In some embodiments, the flow rate of receptor solution through each diffusion cell 50 can be reduced or increased to a flow rate of about 0.828 μl/hr to about 1270 ml/hr as needed or per application requirements. An embodiment of a MFtC 5 of the present disclosure was placed in a temperature controlling system such as a water bath 80 maintained at 37° C. using a hot plate to control the temperature. In some embodiments, the temperature can be adjusted as needed or per application requirements. In order to minimize evaporation, the donor compartment 220 and sampling container(s) 70 such as a sampling microfuge tube(s) 70 were occluded with parafilm. The sampling container(s) 70 such as a sampling tube(s) 70 was collected at specific time intervals and replaced by a sampling container(s) 70 such as an empty sampling tube(s) 70 for subsequent collections. The experiments were performed in triplicates or more. In some embodiments, the method of collecting the sample can be modified as needed or per application requirements. Skin samples from the same rat were used for comparisons between the horizontal diffusion cell and a MFtC 5 to minimise inter-animal variability. All experiments were performed at least three times. The samples were collected at the same time intervals and stored at 4° C. until analysis. During analysis, samples were first centrifuged at 13,000 rpm (Sorvall Biofuge Pico, UK) for 5 min. […]

[6] = Permeation across rat abdominal skin in horizontal diffusion cell (HDC); assay type: in vitro ADME
Experimental: To evaluate the performance characteristics of the MFtC 5, permeation of model compounds (rhodamine B and mangostin) using a horizontal diffusion cell (TK-6H1, Shanghai Kai Kai Technology, China) and a MFtC 5 was compared. Rat abdominal skins were obtained from the National University of Singapore Animal Centre and kept at −80° C. until use. Prior to the permeation studies, the skins were thawed and hair was completely removed with an electrical shaver and hair remover cream (Veet). Subcutaneous fat and connective tissues were also lightly trimmed off. All animal experiments were approved by Institutional Animal Care and Use Committee, National University of Singapore. A 2.0 cm×2.0 cm piece of rat abdominal skin was mounted between the donor and receptor compartments of the horizontal diffusion cell, with the stratum corneum side facing the donor compartment. The effective diffusion area was 1.13 cm^2. Each donor cell contained 4.5 ml of each model compound in propylene glycol (PG) and the receptor cell contained the same volume of PBS. Mangostin was used at a concentration of 2.3 mg/ml and rhodamine B at concentrations of 1 mg/ml and 5 mg/ml. Both compartments were thermostated at 37° C. by means of a surrounding temperature controlled water jacket. In order to minimize evaporation, all cell openings were occluded with parafilm. The fluids in both compartments were maintained in a stirred state by a Teflon coated magnetic stirrer at a speed of 250±1.25 rpm. Samples (1 ml) were withdrawn from the receptor compartment for analysis at specific time intervals. Upon each sample withdrawal, the receptor compartment was immediately replaced by an equal volume of fresh solution. The experiments were performed in triplicates or more. Skin samples from the same rat were used for comparisons between the horizontal diffusion cell and a MFtC 5 to minimise inter-animal variability. All experiments were performed at least three times. The samples were collected at the same time intervals and stored at 4° C. until analysis. During analysis, samples were first centrifuged at 13,000 rpm (Sorvall Biofuge Pico, UK) for 5 min. The supernatant was obtained and analyzed according to their respective assay methods as reported below. Concentration of rhodamine B was determined by fluorescence spectroscopy with a microplate reader (Tecan, Switzerland) at an excitation wavelength (λex)=554 nm and an emission wavelength (λem)=586 nm at ambient temperature. All samples were protected from light to prevent possible light quenching of fluorescence during the assay. Mangostin concentration was determined with a reversed phase HPLC (Hitachi, Japan) using a C18 column (5 μm, 4.6 mm×250 mm; ODS Hypersil, Thermo Scientific) maintained at ambient temperature. The mobile phase comprised of methanol and ultrapure water (90:10, v/v) delivered at a flow rate of 1 ml/min. The UV detector (L-2400, Hitachi, Japan) was operated at a λ=320 nm. Under these conditions, the mangostin peak appeared at a retention time of 6.8 min.

[7] = ENX 2 mg/ml in PG alone (control)
[8] = ENX 2 mg/ml in PG with limonene 0.5% (w/v)
[9] = ENX 2 mg/ml in PG with myristyl lactate 0.5% (w/v)
[10] = ENX 2 mg/ml in PG with oleic acid 0.5% (w/v)
[11] = MFtC, donor 1 mg/ml in propylene glycol, rat abdominal skin, mean ± SD
[12] = MFtC, donor 5 mg/ml in propylene glycol, rat abdominal skin, mean ± SD
[13] = HDC, donor 1 mg/ml in propylene glycol, rat abdominal skin, mean ± SD
[14] = HDC, donor 5 mg/ml in propylene glycol, rat abdominal skin, mean ± SD

- Flux through human skin [2]: 2.17 μg/cm^2/hr
- Flux [3, 7]: 0.65 ± 0.01 μg/cm^2/hr
- Lag time [3, 7]: 1.03 ± 1.40 h
- Flux [3, 8]: 6.52 μg/cm^2/hr
- Lag time [3, 8]: 3.75 ± 2.37 h
- Flux ([3]; ENX 2 mg/ml in PG with limonene 0.5% (w/v), listed as ENX): 6.52 ± 1.41 μg/cm^2/hr
- Flux [3, 9]: 5.33 ± 0.13 μg/cm^2/hr
- Lag time [3, 9]: 7.62 ± 2.18 h
- Flux [3, 10]: 4.09±1.07 μg/cm^2/hr
- Lag time [3, 10]: 7.58 ± 4.04 h
- Flux ([3]; ENX 2 mg/ml in PG with oleic acid 0.5% (w/v), listed as ENX): 4.09 ± 1.07 μg/cm^2/hr
- Enhancement index (EI) = Jss (with enhancer)/Jss (without enhancer) ([3]; ENX in PG with limonene 0.5% (w/v) versus PG alone): 9.99
- Enhancement index (EI) = Jss (with enhancer)/Jss (without enhancer) ([3]; ENX in PG with myristyl lactate 0.5% (w/v) versus PG alone): 8.17
- Enhancement index (EI) = Jss (with enhancer)/Jss (without enhancer) ([3]; ENX in PG with oleic acid 0.5% (w/v) versus PG alone): 6.26
Compound: CC/C(=C(\c1ccc(O)cc1)c1ccc(OCCNC)cc1)c1ccccc1 [endoxifen]
- log P [1]: 4.94
- Highest flux reported (Jss) [4]: 0.22 μg/cm^2/hr

Compound: C=C(C)[C@H]1CC=C(C)CC1 [limonene, (R)-(+)-limonene]
- log P [1]: 4.83

Compound: COc1c(O)cc2oc3cc(O)c(CC=C(C)C)c(O)c3c(=O)c2c1CC=C(C)C [mangostin, α-mangostin]
- Flux ([5]; rat, 48 h, 2.3 mg/ml): 8.34 ± 3.40 μg/cm^2/hr
- Lag time ([5]; rat, 48 h, 2.3 mg/ml): 14.5 ± 2.71 h
- log P [1]: 6.64
- Flux ([6]; rat, 48 h, 2.3 mg/ml): 7.06 ± 1.06 μg/cm^2/hr
- Lag time ([6]; rat, 48 h, 2.3 mg/ml): 7.19 ± 0.47 h

Compound: CCCCCCCCCCCCCCOC(=O)C(C)O (stereo not shown) [myristyl lactate]
- log P [1]: 6.08

Compound: CCCCCCCC/C=C\CCCCCCCC(=O)O [oleic acid]
- log P [1]: 7.42

Compound: CC(O)CO (stereo not shown) [propylene glycol]
- log P [1]: −1.00

- Flux [5, 11]: 0.05 ± 0.02 μg/cm^2/hr
- Lag time [5, 11]: 22.1 ± 4.07 h
- Flux [5, 12]: 0.05 ± 0.02 μg/cm^2/hr
- Lag time [5, 12]: 8.35 ± 4.75 h
- Flux [6, 13]: 0.04 ± 0.03 μg/cm^2/hr
- Lag time [6, 13]: 17.7 ± 3.47 h
- Flux [6, 14]: 0.07 ± 0.01 μg/cm^2/hr
- Lag time [6, 14]: 11.4 ± 3.31 h
Compound: CCN(CC)c1ccc2c(-c3ccccc3C(=O)O)c3ccc(=[N+](CC)CC)cc-3oc2c1.[Cl-] [rhodamine B]
- log P [1]: 2.43
